Reference: PubChem BioAssay (NCI)
Where “and” joins values, the source holds several entries; their conditions need not be identical. Equal values may be shown once.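 These data come from cells grown in 96-well plates and exposed to compound for 48 hours at five concentrations. GI50 = concentration required for 50% inhibition of growth. TGI denotes the concentration required for complete inhibition of growth.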

Test system: MCF7 breast
Experiment: NCI anticancer screen, dose series, 48 h

Row | SMILES | GI50 | TGI
1 | COc1ccc(-c2ccc3c(N4CCOC[C@@H]4C)nc(N4CCOC[C@@H]4C)nc3n2)cc1CO | 0.00432 µM and < 0.0133 µM | > 3.27 µM and 1.34 µM
2 | COc1ccc(-c2nc(-c3cc(OC)cc(OC)c3)[nH]c2-c2ccc(OC)cc2)cc1 | 3.77 µM | > 100 µM
3 | COC(=O)c1cc2c(o1)-c1nccc3c1c(nc1ccccc13)C2=O | 2.07 µM | 15.6 µM
4 | CC1(C)CN=C(NN=C(/C=C/c2ccc(C(F)(F)F)cc2)/C=C/c2ccc(C(F)(F)F)cc2)NC1 | 1.4 µM | 2.92 µM
5 | COc1cc(/C=C\c2cc(OC)c(OC)c(OC)c2)cc(N/C=C\C(=O)c2c[nH]c3ccccc23)c1OC | 0.72 µM | 3.15 µM
6 | CC1CC(O)C(=O)C(O[C@@H]2C[C@@H]3CC[C@@H]4[C@H](CC[C@]5(C)C(C6=CC(=O)OC6)CC[C@]45O)[C@@]3(C=O)C[C@H]2O)O1 (stereo not given in full) | – | 0.152 µM
7 | CCCC(=O)C1=C(O)C(Cc2c(O)c(C)c(O)c(C(=O)CCC)c2O)=C(O)C(C)(C)C1=O | – | > 50 µM

Test system: MOLT-4 leukemia
Experiment: NCI anticancer screen, dose series, 48 h

Row | SMILES | TGI | GI50
8 | Nc1ccccc1C(=O)/C=C/c1c(O)ccc2ccccc12 | > 100 µM | –
9 | CCC(C)(O)c1cnc(CC(C)C)c(=O)n1O (stereo not given) | 48.6 µM | –
10 | CCC1CN2CCc3cc(OC)c(OC)cc3C2CC1CC1c2cc(OC)c(OC)cc2CCN1C(=O)C1CCCN1 (stereo not given) | 85.1 µM | –
11 | CC(C(=O)c1ccc(Cl)cc1)/C(=N/NC(=O)NN)C(=O)Nc1cccc(C(F)(F)F)c1 (stereo not given) | > 100 µM | –
12 | COc1cc2c(/C=N\N=C(N)N)c[nH]c2cc1C | 27.2 µM | 14.2 µM
13 | CCOP(=O)(OCC)C(C(=O)OC)C(=O)C(=O)Nc1ccc(Cl)cc1Cl (stereo not given) | > 100 µM | –
14 | CC(C)=C1CCC(CN(C)C)C1=O (stereo not given) | 32.9 µM | –
15 | COc1cccc(/C=N/[N-]C(=O)c2ccncc2)c1[O-].COc1cccc(/C=N/[N-]C(=O)c2ccncc2)c1[O-].[O]=[U](=[O])([OH2+])[OH2+] | > 100 µM | 1.44 µM
16 | CC(C)(C)c1ccc2c(c1)S(=O)(=O)Nc1ccc(Cl)cc1NS(=O)(=O)c1cc(C(C)(C)C)ccc1OCCOCCOCCO2 | > 100 µM | –
17 | O=C1c2ccccc2-c2c1c1ccccc1c(=O)n2CCN1CCNCC1 | 0.688 µM | 0.253 µM
18 | N#CC(=Nc1ccccc1N(C(=O)c1ccccc1)C(=O)c1ccccc1)c1ccccc1 | > 100 µM | –
19 | COc1c(C)n(CCO)ccc1=O | > 100 µM | –
20 | COC(=O)C(=O)C(C(C)=O)C(=O)NCc1ccc(OC)c(OC)c1 (stereo not given) | > 100 µM | –
21 | COc1ccc(-c2ccc3c(N4CCOC[C@@H]4C)nc(N4CCOC[C@@H]4C)nc3n2)cc1CO | > 6.64 µM and 37.1 µM | 0.00584 µM and 0.0488 µM
22 | Nc1c(-c2ccccc2-c2c(N)[n+]([O-])c3ccccc3[n+]2[O-])[n+]([O-])c2ccccc2[n+]1[O-] | 8.42 µM | –
23 | CCOC(=O)NC(=O)c1cn(C(CC)COC(=O)NCCCCCCNC(=O)OCC(CC)n2cc(C(=O)NC(=O)OCC)c(=O)[nH]c2=O)c(=O)[nH]c1=O (stereo not given) | > 100 µM | –
24 | COc1ccc(-c2nc(-c3cc(OC)cc(OC)c3)[nH]c2-c2ccc(OC)cc2)cc1 | 8.15 µM | 2.8 µM
25 | COC(=O)c1cc2c(o1)-c1nccc3c1c(nc1ccccc13)C2=O | 7.28 µM | 2.64 µM
26 | O=C(CC(=O)C1CCOC1=O)C(=O)Nc1cccc(Cl)c1 (stereo not given) | > 100 µM | –

Row | SMILES | TGI | GI50
27 | CCN1c2ccccc2-c2c3c1cc(C)cc3c1ccccc1[n+]2CC | 3.41 µM | –
28 | Cc1cccc(C2=C/C(=C(\SS/C(C(=O)c3ccc(OCC(=O)O)c(Cl)c3Cl)=C3\C=C(c4cccc(C)c4)SS3)C(=O)c3ccc(OCC(=O)O)c(Cl)c3Cl)SS2)c1 | 40.2 µM | –
29 | CC(=O)N1CCN(c2ccc(OCC3COC(Cn4ccnc4)(c4ccc(Cl)cc4Cl)O3)cc2)CC1 (stereo not given) | > 100 µM | –
30 | O=C(Cc1nc2c3c(ccc2[nH]c1=O)C(=O)c1ccccc1C3=O)C(=O)Nc1ccccc1[N+](=O)[O-] | 23.2 µM | –
31 | CC1=C(C#N)C(=O)CC(c2ccc(Cl)cc2)N(C)N1 (stereo not given) | > 100 µM | –
32 | Nc1nc(-c2ccc(Cl)c([N+](=O)[O-])c2)cs1 | > 100 µM | –
33 | COc1cc(/C=C2\[C@H]3c4c(c(OC)c(C)c(OC)c4OC)CC(C(=O)N2Cc2ccccc2)N3C)c(OC)c(C)c1OC | 56.9 µM | –
34 | O=C(N/C(=C\c1ccc([N+](=O)[O-])cc1)c1nc2ccccc2[nH]1)c1ccccc1 | > 100 µM | –
35 | COC(=O)/C([Se]c1c(C)cc(C)cc1C)=C(/[Se]c1c(C)cc(C)cc1C)C(=O)OC | > 100 µM | –
36 | NC(=O)C(=O)CC(=O)c1ccccc1NC1=CC(=O)C(=O)c2ccccc21 | > 100 µM | –
37 | CC1CC(O)C(=O)C(O[C@@H]2C[C@@H]3CC[C@@H]4[C@H](CC[C@]5(C)C(C6=CC(=O)OC6)CC[C@]45O)[C@@]3(C=O)C[C@H]2O)O1 (stereo not given in full) | 0.0991 µM | –
38 | Cc1cc2c(c(C(N)=O)c1C)-c1ccccc1C2=O | > 100 µM | –
39 | CCCC(=O)C1=C(O)C(Cc2c(O)c(C)c(O)c(C(=O)CCC)c2O)=C(O)C(C)(C)C1=O | 36.3 µM | –
40 | COC(=O)/C(=N/O)C(C(=O)C=C(C)C)C(=O)C(=O)Nc1nc2ccc([N+](=O)[O-])cc2s1 (stereo not given) | 72.9 µM | –
41 | Cc1ccccc1C1=[N+]([O-])c2ccc(Cl)cc2C1=O | 24.3 µM | –
42 | c1coc(-c2c3ccc(=[N+]4CCCCC4)cc-3oc3cc(N4CCCCC4)ccc23)c1 | 0.903 µM | 0.0463 µM
43 | Cc1[nH]c2ccccc2c1C1Cc2ccccc2N1C(=O)C#Cc1ccc([N+](=O)[O-])cc1 (stereo not given) | > 100 µM | –
44 | CCOC(=O)NC(=O)c1cn(C2CCCCC2)c(=O)[nH]c1=O | > 100 µM | –
45 | Cn1c(=O)nc2n(-c3cc(C(F)(F)F)cc(C(F)(F)F)c3)c3ccccc3nc-2c1=O | > 100 µM | –

Test system: DU-145 prostate
Experiment: NCI anticancer screen, dose series, 48 h

Row | SMILES | GI50 | TGI
46 | O=C(O)c1cccc(COc2ccc([N+](=O)[O-])cc2Cl)c1 | > 100 µM | > 100 µM
47 | CCC(C)(O)c1cnc(CC(C)C)c(=O)n1O (stereo not given) | – | > 100 µM
48 | Cn1cc(-c2csc(-c3cn(CCCCN4CCCCC4)c4ccccc34)n2)c2cccnc21 | 1.75 µM | 3.2 µM
49 | O=C1c2ccccc2-c2c1c1ccccc1c(=O)n2CCN1CCNCC1 | 3.11 µM | 8.79 µM
50 | COc1ccc(-c2ccc3c(N4CCOC[C@@H]4C)nc(N4CCOC[C@@H]4C)nc3n2)cc1CO | 0.00584 µM and 0.0416 µM | > 100 µM
51 | COc1ccc(-c2nc(-c3cc(OC)cc(OC)c3)[nH]c2-c2ccc(OC)cc2)cc1 | 65.5 µM | > 100 µM
52 | COC(=O)c1cc2c(o1)-c1nccc3c1c(nc1ccccc13)C2=O | 4.26 µM | 22.9 µM
53 | CC1(C)CN=C(NN=C(/C=C/c2ccc(C(F)(F)F)cc2)/C=C/c2ccc(C(F)(F)F)cc2)NC1 | 1.04 µM | 2.22 µM
54 | COc1cc(/C=C\c2cc(OC)c(OC)c(OC)c2)cc(N/C=C\C(=O)c2c[nH]c3ccccc23)c1OC | 2.06 µM | 4.08 µM
55 | CC1CC(O)C(=O)C(O[C@@H]2C[C@@H]3CC[C@@H]4[C@H](CC[C@]5(C)C(C6=CC(=O)OC6)CC[C@]45O)[C@@]3(C=O)C[C@H]2O)O1 (stereo not given in full) | – | 0.0237 µM
56 | CCCC(=O)C1=C(O)C(Cc2c(O)c(C)c(O)c(C(=O)CCC)c2O)=C(O)C(C)(C)C1=O | – | > 50 µM
57 | c1coc(-c2c3ccc(=[N+]4CCCCC4)cc-3oc3cc(N4CCCCC4)ccc23)c1 | 0.088 µM | 0.475 µM

Test system: OVCAR-8 ovarian
Experiment: NCI anticancer screen, dose series, 48 h

Row | SMILES | GI50 | TGI
58 | O=C(O)c1cccc(COc2ccc([N+](=O)[O-])cc2Cl)c1 | 86.4 µM | > 100 µM
59 | Nc1ccccc1C(=O)/C=C/c1c(O)ccc2ccccc12 | – | > 100 µM
60 | CCC(C)(O)c1cnc(CC(C)C)c(=O)n1O (stereo not given) | – | > 100 µM
61 | CCC1CN2CCc3cc(OC)c(OC)cc3C2CC1CC1c2cc(OC)c(OC)cc2CCN1C(=O)C1CCCN1 (stereo not given) | – | > 100 µM
62 | CC(C(=O)c1ccc(Cl)cc1)/C(=N/NC(=O)NN)C(=O)Nc1cccc(C(F)(F)F)c1 (stereo not given) | – | > 100 µM
63 | COc1cc2c(/C=N\N=C(N)N)c[nH]c2cc1C | 40.2 µM | > 100 µM
64 | CCOP(=O)(OCC)C(C(=O)OC)C(=O)C(=O)Nc1ccc(Cl)cc1Cl (stereo not given) | – | > 100 µM
65 | CC(C)=C1CCC(CN(C)C)C1=O (stereo not given) | – | 49.4 µM
66 | COc1cccc(/C=N/[N-]C(=O)c2ccncc2)c1[O-].COc1cccc(/C=N/[N-]C(=O)c2ccncc2)c1[O-].[O]=[U](=[O])([OH2+])[OH2+] | 5.11 µM | > 100 µM
67 | CC(C)(C)c1ccc2c(c1)S(=O)(=O)Nc1ccc(Cl)cc1NS(=O)(=O)c1cc(C(C)(C)C)ccc1OCCOCCOCCO2 | – | > 100 µM
68 | O=C1c2ccccc2-c2c1c1ccccc1c(=O)n2CCN1CCNCC1 | 0.968 µM | 3.59 µM
69 | N#CC(=Nc1ccccc1N(C(=O)c1ccccc1)C(=O)c1ccccc1)c1ccccc1 | – | > 100 µM
70 | COc1c(C)n(CCO)ccc1=O | – | > 100 µM
